Consider two compounds from US20090306053A1, “Highly selective rho-kinase inhibitor” (priority 2005, published 2009).

What is called IC50 is the midpoint of a concentration-inhibition curve.

Test [1] deals with T1, Recombinant human AuroraA (Homo sapiens, UniProt O14965).
T1 construct: purchased Upstate
T1 sequence (O14965 1-403): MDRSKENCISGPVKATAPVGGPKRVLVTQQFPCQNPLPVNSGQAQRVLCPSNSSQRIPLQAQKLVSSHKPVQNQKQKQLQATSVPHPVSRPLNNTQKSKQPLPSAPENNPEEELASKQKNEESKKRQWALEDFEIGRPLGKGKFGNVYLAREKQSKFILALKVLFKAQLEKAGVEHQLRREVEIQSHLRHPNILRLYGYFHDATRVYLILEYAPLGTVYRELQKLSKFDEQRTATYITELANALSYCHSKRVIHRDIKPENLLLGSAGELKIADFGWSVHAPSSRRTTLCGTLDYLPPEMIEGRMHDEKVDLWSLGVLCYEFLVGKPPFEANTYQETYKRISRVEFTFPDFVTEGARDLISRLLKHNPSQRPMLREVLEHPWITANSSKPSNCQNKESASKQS
Nature of the test: AuroraA kinase assay (Kinase-Glo ATP consumption). Particulars: for IC50: 1 μM ATP, read-out: Kinase Inhibiting Activity (IC50) AuroraA; for Realative Inhibitory Activity AuroraA: relative ratio to ROCKII (=1.0), based on IC50 values. The arrangement: key to Realative Inhibitory Activity AuroraA: ratio relative to ROCKII-inhibiting activity defined as 1.0 (from IC50s). The class given is biochemical. The procedure: Recombinant human AuroraA (Upstate) was used to evaluate its activity to phosphorylate a substrate peptide (LRRASLG, Promega) was evaluated.
(§1) In a system of the total volume of 50 μL, the reaction of the above-mentioned enzyme (40 ng) was carried out at room temperature for 80 minutes in the presence of 40 mM of MOPS-NaOH (pH 7.5), 20 mM of magnesium chloride, 200 μM of the above peptide, and 1 μM of ATP. After the kinase reaction, the luminescence intensity corresponding to the amount of ATP in the reaction system was measured using a luciferase reagent (Kinase-Glo Luminescent Kinase Assay kit, Promega) with a chemiluminescence measurement apparatus (MicroLumat, Berthold Technologies). The amount of ATP consumed by the phosphorylation reaction was calculated by comparison with the luminescence intensity in the system when the kinase reaction was not carried out.
(§2) With this system, the kinase reaction was carried out in the presence of a compound at various concentrations, and the IC50 value of the compound was determined based on the resulting compound concentration-response curve for ATP consumption.
The ROCKII-inhibiting activity of a compound to be tested was defined as 1.0, and the inhibitory activities of the compound against kinases (PKA, PKG, CaMKII, and AuroraA) other than ROCKII were calculated as relative ratios to the ROCKII-inhibiting activity, based on the IC50 values calculated using the above-described evaluation system.

The target of another test is Purified rat PKC. Nature of the test: PKC kinase assay (Kinase-Glo ATP consumption). The class given is biochemical. Particulars: 1 μM ATP; read-out: Kinase Inhibiting Activity (IC50) PKC. The method, then:
Purified rat PKC (containing PKCα, β, and γ and small amounts of δ and ξ isoforms, Promega) was used to evaluate its activity to phosphorylate a substrate peptide (AAKIQASFRGHMARKK, Promega).
as §1, with “(5” for “(40”, “20” for “40”, “Tris-HCl” for “MOPS-NaOH”, “0.4 mM of calcium chloride, 0.1 mg/mL of BSA, 0.25 mM of EGTA, 0.5 mg/mL of phosphatidylserine (Sigma), 0.05 mg/mL of 1,2-dioctanoyl-sn-glycerol (Sigma), 10” for “200”
as §2

In the case of `CNCC(=O)N1CCCN(S(=O)(=O)c2cccc3cncc(F)c23)[C@@H](C)C1.Cl.Cl` [Example 2, 2-(S)-1-(4-fluoroisoquinoline-5-sulfonyl)-2-methyl-4-(N-methylglycyl)homopiperazine dihydrochloride], in test [1], the half-maximal inhibitory concentration (IC50) was found to be 92.2 µM and the “Realative Inhibitory Activity AuroraA” value is on record as over 3000. The IC50 on Purified rat PKC is over 100 µM.

“2-(S)-1-(4-fluoroisoquinoline-5-sulfonyl)-4-glycyl-2-methylhomopiperazine dihydrochloride [Example 1]”: the IC50 is 84.5 µM in test [1] and over 100 µM at Purified rat PKC. The “Realative Inhibitory Activity AuroraA” value in test [1] is on record as 2817.
